Consider 37 molecules from patent US9067935B2 (Janssen Pharmaceutica, NV, priority 2010, dated 2015).

Broadly, the % Inhibition is the relative decrease from the control value, in per cent. As a reminder, the IC50 is the concentration needed to halve the response being measured. As a reminder, the EC50 is the midpoint of the concentration-response curve.

For assay [1], the target named is canine TRPM8 (Canis lupus familiaris, UniProt Q1A7N1). Briefly: In Vitro Canine TRPM8 Functional Assay (intracellular Ca2+ fluorescence, icilin challenge). In kind it is cell-based. The settings on record: for IC50: icilin at ~80% maximal response. The protocol: The functional activity of compounds of the formula (I) was determined by measuring changes in intracellular calcium concentration using a Ca^2+-sensitive fluorescent dye. The changes in fluorescent signal were monitored by a fluorescence plate reader, either a FLIPR™ (Molecular Devices) or FDSS (Hamamatsu).
Sequence of canine TRPM8 (Q1A7N1 1-1104): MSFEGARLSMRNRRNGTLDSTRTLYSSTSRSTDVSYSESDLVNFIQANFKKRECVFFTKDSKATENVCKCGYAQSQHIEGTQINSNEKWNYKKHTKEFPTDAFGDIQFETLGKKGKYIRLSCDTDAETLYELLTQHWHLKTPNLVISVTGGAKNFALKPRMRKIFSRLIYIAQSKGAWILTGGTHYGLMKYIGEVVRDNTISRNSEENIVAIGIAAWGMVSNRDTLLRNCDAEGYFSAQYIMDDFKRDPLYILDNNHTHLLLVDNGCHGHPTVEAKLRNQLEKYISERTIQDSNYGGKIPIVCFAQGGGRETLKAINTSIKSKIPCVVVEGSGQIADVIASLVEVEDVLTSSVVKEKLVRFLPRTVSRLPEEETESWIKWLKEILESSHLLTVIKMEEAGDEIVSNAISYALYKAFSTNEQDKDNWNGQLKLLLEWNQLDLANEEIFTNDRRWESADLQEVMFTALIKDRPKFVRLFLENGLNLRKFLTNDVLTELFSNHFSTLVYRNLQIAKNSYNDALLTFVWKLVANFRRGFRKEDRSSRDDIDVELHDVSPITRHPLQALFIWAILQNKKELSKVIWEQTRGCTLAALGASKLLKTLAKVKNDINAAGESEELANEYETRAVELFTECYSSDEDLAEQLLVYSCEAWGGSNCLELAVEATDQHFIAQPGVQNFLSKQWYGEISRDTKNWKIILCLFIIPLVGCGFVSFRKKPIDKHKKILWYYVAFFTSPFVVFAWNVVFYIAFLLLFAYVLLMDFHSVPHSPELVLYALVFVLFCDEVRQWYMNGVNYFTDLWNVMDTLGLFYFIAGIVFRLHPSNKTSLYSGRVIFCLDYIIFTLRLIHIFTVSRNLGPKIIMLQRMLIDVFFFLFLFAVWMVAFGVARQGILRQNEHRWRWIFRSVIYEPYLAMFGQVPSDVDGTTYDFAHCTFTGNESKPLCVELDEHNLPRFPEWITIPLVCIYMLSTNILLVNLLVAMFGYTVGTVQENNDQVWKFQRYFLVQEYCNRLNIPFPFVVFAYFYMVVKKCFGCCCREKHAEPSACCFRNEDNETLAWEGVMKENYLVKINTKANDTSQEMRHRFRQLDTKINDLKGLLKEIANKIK
At 24 hrs prior to assay, HEK293 cells stably expressing canine TRPM8 were seeded in culture medium in black wall, clear-base poly-D-lysine coated 384-well plates (BD Biosciences, NJ, USA) and grown overnight in 5% CO2 at 37° C. On assay day, growth media was removed and cells were loaded with Calcium 3 Dye (Molecular Devices) for 35 min at 37° C., under 5% CO2 and then for 25 min at room temperature and atmosphere. Subsequently, cells were tested for agonist-induced increases in intracellular Ca^2+ levels using FLIPR™ or FDSS. Cells were challenged with a compound of the Formula (I) (at varying concentrations) and intracellular Ca^2+ was measured for 5 min prior to the addition of icilin to all wells to achieve a final concentration that produces approximately an 80% maximal response. EC50 or IC50 values for compounds of the present invention were determined from eight-point dose-response studies. Curves were generated using the average of quadruplicate wells for each data point.

For assay [2], the system named is Male Sprague Dawley rats. The assay is described as follows: Inhibition of Icilin-Induced "Wet-Dog" Shakes in Rats. In kind it is in vivo. The note with it: rat, dose 10, p.o. The protocol: Similar shaking or jumping behavior was also evident in mice, rabbits, cats, dogs and monkeys. In humans, icilin produced a sensation of coolness on contact with mucous membranes, cold prickling when 0.1 mg was dropped on the tongue and coldness in the mouth, pharynx and chest lasting 30-60 minutes when 5-10 mg was ingested orally (Wei E T, Seid D A, J Pharm Pharmacol. 1983, 35, 110). The inhibition or reversal of icilin-induced shaking behaviors in rodents provides evidence for the utility of TRPM8 antagonists of the formula (I) in treating or preventing a disease, syndrome, disorder, or condition in a subject in which the disease, syndrome, disorder or condition is affected by the modulation of TRPM8 receptors.
Male Sprague Dawley rats (220-450 g, Charles River Labs, n=6-9/treatment) may be used to evaluate the ability of selected compounds of the formula (I) to block icilin-induced “wet-dog” shakes (WDS). Compounds of the formula (I) may be administered in an appropriate vehicle, such as hydroxypropyl-β-cyclodextrin (HPIβCD), methocellulose, 10% Solutol, or H2O, or the like, by the appropriate route, i.p. or p.o., 30-120 minutes before icilin. Icilin may be administered in PEG-400 or 10% solutol/H2O, at 1.0 or 3.0 mg/kg, i.p. and spontaneous “wet-dog” shakes may be counted 10-20 minutes post-icilin.

In assay [3] the target is TRPM8 (Mus musculus (Mouse), UniProt Q8R4D5). The settings on record: TRPM8 transfected cells (Behrendt H J et al. 2004); cited from earlier work.
Sequence of TRPM8 (Q8R4D5 whole entry): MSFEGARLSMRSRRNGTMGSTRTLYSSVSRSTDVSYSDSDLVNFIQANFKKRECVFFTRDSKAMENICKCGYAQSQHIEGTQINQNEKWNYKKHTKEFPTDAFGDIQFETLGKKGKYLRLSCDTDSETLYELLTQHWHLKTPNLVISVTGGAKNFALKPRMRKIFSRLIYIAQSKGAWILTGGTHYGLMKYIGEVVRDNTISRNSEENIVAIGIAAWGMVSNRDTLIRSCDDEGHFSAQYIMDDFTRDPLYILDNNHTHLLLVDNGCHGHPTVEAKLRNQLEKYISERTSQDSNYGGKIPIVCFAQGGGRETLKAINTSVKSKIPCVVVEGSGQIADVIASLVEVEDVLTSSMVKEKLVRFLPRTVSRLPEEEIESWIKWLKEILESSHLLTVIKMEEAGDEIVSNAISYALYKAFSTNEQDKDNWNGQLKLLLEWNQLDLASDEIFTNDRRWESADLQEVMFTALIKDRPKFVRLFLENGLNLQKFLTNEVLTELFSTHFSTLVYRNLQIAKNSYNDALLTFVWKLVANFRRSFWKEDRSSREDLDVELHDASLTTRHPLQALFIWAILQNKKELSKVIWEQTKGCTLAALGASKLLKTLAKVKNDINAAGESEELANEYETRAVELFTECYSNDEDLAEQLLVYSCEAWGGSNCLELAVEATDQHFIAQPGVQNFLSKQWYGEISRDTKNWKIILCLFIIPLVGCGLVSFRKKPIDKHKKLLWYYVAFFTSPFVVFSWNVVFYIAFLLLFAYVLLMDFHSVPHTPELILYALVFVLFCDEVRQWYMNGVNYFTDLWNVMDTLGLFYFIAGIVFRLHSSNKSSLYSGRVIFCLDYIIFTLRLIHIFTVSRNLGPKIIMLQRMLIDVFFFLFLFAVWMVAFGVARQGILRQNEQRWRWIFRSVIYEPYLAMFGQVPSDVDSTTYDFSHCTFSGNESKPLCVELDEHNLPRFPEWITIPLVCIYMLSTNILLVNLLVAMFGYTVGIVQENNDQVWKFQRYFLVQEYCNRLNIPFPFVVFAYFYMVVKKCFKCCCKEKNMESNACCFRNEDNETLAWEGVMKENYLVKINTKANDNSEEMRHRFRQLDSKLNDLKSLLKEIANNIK
[4] abbreviates: HEK293, @ 0.2 μM, HEK293 cells stably expressing canine TRPM8, read-out: % Inh (%) @ 0.2 μM.
Setting [5] is: HEK293 cells stably expressing canine TRPM8.
Where [6] appears, read: vehicle 20% HPβCD, form CO2−Na+.
Setting [7] is: HEK293, read-out: % Inh (%) @ 0.2 μM.

Several values for one entry are separate records, joined by “and”; a condition that tells them apart may be missing. Equal entries are not always repeated. Where two headings read alike, the source gives them in different places.

Consider `Cc1c(N(Cc2ccc(C(F)(F)F)c(F)c2)S(=O)(=O)c2ccccc2)nc2ccc(Cl)cn12` [Compound 38], for which the inhibition at 0.2 µM in assay [1] (setting [4]) was 100%. Besides, the “% Inhibition” value in assay [2] (vehicle 20% HPβCD, form Hydrochloride) was 6.5%. For the molecule `Cc1c(N(Cc2ccc(OC(F)(F)F)cc2)S(=O)(=O)c2ccc(C(=O)[O-])cc2)nc2ccccn12.[Na+]` [Compound 107], in assay [1] (setting [5]), the “% Inh (%) @ 0.2 μM” value amounted to 101% and the concentration for half-maximal inhibition (IC50) worked out at 5.68 nM. The “% Inhibition” value in assay [2] (setting [6]) is −20.6%. Consider `O=C1NC(c2cccc([N+](=O)[O-])c2)=CCN1c1ccccc1O` [icilin], for which the EC50 in assay [3] was 200 nM.

Take `CC(C)c1c(N(Cc2ccc(OC(F)(F)F)cc2)S(=O)(=O)c2ccc(C(=O)[O-])cc2)nc2ccccn12.[Na+]` [Compound 109]: in assay [1] (setting [5]), the “% Inh (%) @ 0.2 μM” value was found to be 101% and half-maximal inhibition (IC50) was put at 2.31 nM. Moreover, the “% Inhibition” value in assay [2] (setting [6]) was −7.5%. On to `O=S(=O)(c1ccccc1)N(Cc1ccc(F)c(C(F)(F)F)c1)c1nc2ccc(Cl)cn2c1Cl` [Compound 8], for which, in assay [1] (setting [5]), the “% Inh (%) @ 0.2 μM” value is given as 96%; the IC50 is 18.3 nM and 23.5 nM and 28.6 nM. The inhibition at 0.2 µM in assay [1] (setting [4]) is 97%. The “% Inhibition” value in assay [2] (vehicle 10% Solutol, form Hydrochloride) is listed as 15.5%. For the molecule `O=C(O)c1ccc(S(=O)(=O)N(Cc2ccc(OC(F)(F)F)cc2)c2nc3ccccn3c2Cl)cc1` [Compound 6], the inhibition at 0.2 µM in assay [1] (setting [7]) stood at 102%.

As for `CCc1c(N(Cc2cccc(C(F)(F)F)c2)S(=O)(=O)c2ccccc2)nc2c(C(F)(F)F)cccn12` [Compound 59], the inhibition at 0.2 µM in assay [1] (setting [4]) was found to be 97%. Besides, in assay [1] (setting [5]), inhibition was half-maximal at 80.2 nM (IC50). As to `Cc1c(N(Cc2cccc(C(F)(F)F)c2)S(=O)(=O)c2ccccc2)nc2ccc(Cl)cn12` [Compound 44], in assay [1] (setting [4]), the inhibition at 0.2 µM was 100%. Besides, in assay [1] (setting [5]), the IC50 amounted to 18.3 nM. Turning to `Cc1c(N(Cc2ccc(OC(F)(F)F)cc2)S(=O)(=O)c2ccc(C(=O)O)cc2)nc2ccc(Cl)cn12` [Compound 113, Sodium 4-(N-(6-Chloro-3-methylimidazo[1,2-a]pyridin-2-yl)-N-(4-trifluoromethoxybenzyl)sulfamoyl)benzoate], the inhibition at 0.2 µM in assay [1] (setting [7]) was found to be 102%. In addition, it took 14.6 nM to reach half-maximal inhibition in assay [1] (setting [5]) (IC50). In the case of `O=S(=O)(c1ccc(N2CCOCC2)nc1)N(Cc1ccc(C(F)(F)F)c(F)c1)c1nc2ccc(Cl)cn2c1Cl` [Compound 74], in assay [1] (setting [4]), the inhibition at 0.2 µM was found to be 74%. This molecule also came in with a half-maximal inhibitory concentration (IC50) in assay [1] (setting [5]) of 62.6 nM. In the same order, the values of `O=S(=O)(c1ccccc1)N(Cc1ccc(OC(F)(F)F)cc1)c1nc2ccccn2c1C1CC1` [Compound 71] are 101% and 21.5 nM.

As to `O=S(=O)(c1ccccc1)N(Cc1ccc(F)c(F)c1)c1nc2ccc(Cl)cn2c1Cl` [Compound 18], the half-inhibitory concentration (IC50) in assay [1] (setting [5]) turned out to be 78.6 nM. For the molecule `O=S(=O)(c1ccccc1)N(Cc1cccc(C(F)(F)F)c1)c1nc2ccccn2c1C1CC1` [Compound 73], the inhibition at 0.2 µM in assay [1] (setting [4]) stood at 100%. On the same count and under the same terms, next, `O=S(=O)(c1ccccc1)N(Cc1ccc(F)c(C(F)(F)F)c1)c1nc2ccc(C(F)(F)F)cn2c1Cl` [Compound 62]: 56%.

For `Cc1c(N(Cc2ccc(F)c(C(F)(F)F)c2)S(=O)(=O)c2ccc(C(=O)O)cc2)nc2ccc(F)cn12` [Compound 121, Sodium 4-(N-(6-fluoro-3-methylimidazo[1,2-a]pyridin-2-yl)-N-(4-fluoro-3-(trifluoromethyl)benzyl)sulfamoyl)benzoate], the inhibition at 0.2 µM in assay [1] (setting [7]) was found to be 101%. The same molecule had a concentration for half-maximal inhibition (IC50) in assay [1] (setting [5]) of 32.8 nM. On to `O=S(=O)(c1ccccc1)N(Cc1ccc(C(F)(F)F)cc1)c1nc2ccccn2c1C1CC1` [Compound 72], for which the inhibition at 0.2 µM in assay [1] (setting [4]) turned out to be 101%. Half-maximal inhibition in assay [1] (setting [5]) (IC50) was put at 11.3 nM. In the same order, the values of `CCc1c(N(Cc2ccc(C(F)(F)F)cc2)S(=O)(=O)c2ccccc2)nc2c(C(F)(F)F)cccn12` [Compound 58] are 87% and 71.5 nM. In the case of `O=S(=O)(c1ccc(-n2cccn2)cc1)N(Cc1ccc(F)c(C(F)(F)F)c1)c1nc2ccccn2c1Br` [Compound 79], in assay [1] (setting [4]), the inhibition at 0.2 µM came to 99%. In assay [1] (setting [5]), this molecule returned an IC50 of 3.17 nM. The matching figures for `O=S(=O)(c1ccc(-n2cccn2)cc1)N(Cc1ccc(C(F)(F)F)c(F)c1)c1nc2ccccn2c1Cl` [Compound 96]: 100% and 5.5 nM. The molecule `Cc1c(N(Cc2ccc(F)c(C(F)(F)F)c2)S(=O)(=O)c2ccccc2)nc2ccc(F)cn12` [Compound 20] gave an IC50 in assay [1] (setting [5]) of 10.1 nM.

Take `O=S(=O)(c1ccc(F)cc1)N(Cc1ccc(F)c(C(F)(F)F)c1)c1nc2ccccn2c1Cl` [Compound 10]: inhibition in assay [1] (setting [5]) was half-maximal at 17.4 nM (IC50). With `CCc1c(N(CC2CC2)S(=O)(=O)c2ccccc2)nc2c(C(F)(F)F)cccn12` [Compound 65], the inhibition at 0.2 µM in assay [1] (setting [4]) came out at 72%. Half-maximal inhibition in assay [1] (setting [5]) (IC50) required 62.8 nM. In the case of `Cc1c(N(Cc2ccc(OC(F)(F)F)cc2)S(C)(=O)=O)nc2ccc(F)cn12` [Compound 22], the inhibition at 0.2 µM in assay [1] (setting [4]) amounted to 51%. As for `COC(=O)c1ccc(S(=O)(=O)N(Cc2ccc(OC(F)(F)F)cc2)c2nc3ccccn3c2Cl)cc1` [Compound 116], the inhibition at 0.2 µM in assay [1] (setting [4]) was 102%. In assay [1] (setting [5]), this molecule had a half-inhibitory concentration (IC50) of 5.29 nM. `Cc1c(N(Cc2ccc(C(F)(F)F)c(F)c2)S(=O)(=O)c2ccccc2)nc2ccc(C(F)(F)F)cn12` [Compound 100, N-(3-Fluoro-4-trifluoromethylbenzyl)-N-(3-methyl-6-trifluoromethylimidazo[1,2-a]pyridin-2-yl)benzenesulfonamide]: the inhibition at 0.2 µM in assay [1] (setting [4]) came to 31%. On to `O=S(=O)(c1ccc(N2CCOCC2)nc1)N(Cc1ccc(F)c(C(F)(F)F)c1)c1nc2ccc(Cl)cn2c1Cl` [Compound 78], for which the inhibition at 0.2 µM in assay [1] (setting [4]) is 26%. With `O=S(=O)(c1ccc(N2CCOCC2)nc1)N(Cc1ccc(C(F)(F)F)c(F)c1)c1nc2ccccn2c1Cl` [Compound 91], the inhibition at 0.2 µM in assay [1] (setting [4]) is 99%. Also, half-maximal inhibition in assay [1] (setting [5]) (IC50) was put at 41.6 nM. `O=S(=O)(c1ccc(N2CCOCC2)nc1)N(Cc1cccc(C(F)(F)F)c1)c1nc2ccccn2c1Cl` [Compound 94]: the inhibition at 0.2 µM in assay [1] (setting [4]) is 97%. The molecule further came in with a concentration for half-maximal inhibition (IC50) in assay [1] (setting [5]) of 48.4 nM. The matching figures for `O=S(=O)(c1ccc(N2CCOCC2)nc1)N(Cc1ccc(OC(F)(F)F)cc1)c1nc2ccccn2c1Cl` [Compound 92]: 99% and 25 nM. In the same order, the values of `Cc1c(N(Cc2cccc(OC(F)(F)F)c2)S(=O)(=O)c2ccccc2)nc2ccc(Cl)cn12` [Compound 45] are 99% and 39 nM. As for `O=S(=O)(c1ccccc1)N(Cc1ccc(C(F)(F)F)c(F)c1)c1cn2ccccc2n1` [Compound 24], 13.4 nM corresponded to half-maximal inhibition in assay [1] (setting [5]) (IC50). Turning to `Cc1cccn2c(C)c(N(Cc3ccc(C(F)(F)F)cc3)S(=O)(=O)c3ccccc3)nc12` [Compound 33], the inhibition at 0.2 µM in assay [1] (setting [4]) stood at 99%. In assay [1] (setting [5]), this molecule gave a half-inhibitory concentration (IC50) of 26.7 nM. On to `CCc1c(N(CCC2CC2)S(=O)(=O)c2ccccc2)nc2c(C(F)(F)F)cccn12` [Compound 63, N-(2-Cyclopropylethyl)-N-(3-ethyl-8-trifluoromethylimidazo[1,2-a]pyridin-2-yl)benzenesulfonamide], for which the inhibition at 0.2 µM in assay [1] (setting [4]) was found to be 99%. For the same molecule, in assay [1] (setting [5]), inhibition was half-maximal at 24.1 nM (IC50). In the same order, the values of `COC(=O)c1ccc(S(=O)(=O)N(Cc2ccc(OC(F)(F)F)cc2)c2nc3ccc(Cl)cn3c2C)cc1` [Compound 110, Methyl 4-(N-(6-Chloro-3-methylimidazo[1,2-a]pyridin-2-yl)-N-(4-trifluoromethoxybenzyl)sulfamoyl)benzoate] are 82% and 57.2 nM. In the same order, the values of `CCc1c(N(Cc2ccc(OC(F)(F)F)cc2)S(=O)(=O)c2ccc(-n3cccn3)cc2)nc2ccc(Cl)cn12` [Compound 89] are 99% and 25 nM. In the same order, the values of `O=S(=O)(c1ccc(N2CCOCC2)nc1)N(Cc1ccccc1)c1nc2ccccn2c1Br` [Compound 83] are 87% and 74.6 nM. Turning to `Cc1c(N(Cc2ccc(F)c(C(F)(F)F)c2)S(=O)(=O)c2ccccc2)nc2ccc(Cl)cn12` [Compound 37], the inhibition at 0.2 µM in assay [1] (setting [4]) was determined as 100%. Inhibition in assay [1] (setting [5]) was half-maximal at 29.4 nM (IC50).
